Results taken from the NIST ThermoML archive (doi:10.1021/je050092d).

What was measured:
[1] = for molar entropy: 101.33 kPa, Vacuum adiabatic calorimetry
[2] = Molar enthalpy of transition or fusion; settings: Adiabatic calorimetry

CCCCCCCCCCCCCCCCCC(=O)OCC(COC(=O)CCCCCCCCCCCCCCCCC)OC(=O)CCCCCCCCCCCCCCCCC [glycerol trioctadecanoate]
[1]
Settings	Normal melting temperature [°C]	Triple point temperature [K]	molar entropy [J/K/mol]
10 K, Crystal	–	–	5.349
20 K, Crystal	–	–	32.09
30 K, Crystal	–	–	74.88
40 K, Crystal	–	–	130.16
50 K, Crystal	–	–	188.99
60 K, Crystal	–	–	251.4
70 K, Crystal	–	–	315.58
80 K, Crystal	–	–	380.66
90 K, Crystal	–	–	443.96
100 K, Crystal	–	–	504.58
110 K, Crystal	–	–	562.52
120 K, Crystal	–	–	618.69
130 K, Crystal	–	–	673.07
140 K, Crystal	–	–	726.56
150 K, Crystal	–	–	778.26
160 K, Crystal	–	–	829.97
170 K, Crystal	–	–	879.89
180 K, Crystal	–	–	929.81
190 K, Crystal	–	–	978.84
200 K, Crystal	–	–	1028.8
210 K, Crystal	–	–	1077.8
220 K, Crystal	–	–	1125.9
230 K, Crystal	–	–	1173.2
240 K, Crystal	–	–	1219.5
250 K, Crystal	–	–	1266.8
260 K, Crystal	–	–	1314
270 K, Crystal	–	–	1361.3
280 K, Crystal	–	–	1408.5
290 K, Crystal	–	–	1456.7
298.15 K, Crystal	–	–	1495.9
300 K, Crystal	–	–	1504.8
310 K, Crystal	–	–	1553.8
320 K, Crystal	–	–	1603.8
330 K, Crystal	–	–	1655.5
Crystal, Adiabatic calorimetry	–	345.94	–
Metastable crystal, Adiabatic calorimetry	54.2	–	–

[2]
Settings	Molar enthalpy of transition or fusion [kcal/mol]
Crystal	47.22
Metastable crystal	30.9
